The values below come from publication PMC8706783 (Pharmaceutics, 2021).

The subject of data set [1] is HLM (Phase 1). The experiment in a line: Reaction phenotyping, HLM with NADPH. The data set is classed as in vitro ADME, human.
Data set [2] concerns the target T1, CYP2C8 (Homo sapiens, UniProt P10632).
T1 construct: tissue Xenotech LLC; host or cells: human liver microsomes, mixed-gender 50 donor pool
The experiment in a line: Enzyme inhibition assay, CYP2C8. The data set is classed as in vitro ADME.

In data set [3] the test system is primary human hepatocytes. The experiment in a line: Cytotoxicity in CYP induction studies. The data set is classed as cell-based. The following applies: 303 nM (100 ng/mL) in primary human hepatocytes.
The subject of data set [4] is CYP3A4 mRNA. More on the design: method as in PMID 23965226. The following applies: 10 μM DPV, colorectal tissue from three human donors; cited from earlier work.
Data set [5] deals with CYP2B6 mRNA. Also on record: method as in PMID 23965226. Particulars: 10 μM DPV, colorectal tissue from three human donors; cited from earlier work.
Data set [6] concerns the target CYP2C19 (Homo sapiens, UniProt P33261). The data set is described as follows: Enzyme inhibition assay, CYP2C19.
Data set [7] deals with HLM (Phase 2). The experiment in a line: Reaction phenotyping, HLM with UDPGA. The following applies: HLM (Phase 2).

Structures are written as SMILES. Bounds are passed on as bounds.

T1 sequence (P10632 whole entry): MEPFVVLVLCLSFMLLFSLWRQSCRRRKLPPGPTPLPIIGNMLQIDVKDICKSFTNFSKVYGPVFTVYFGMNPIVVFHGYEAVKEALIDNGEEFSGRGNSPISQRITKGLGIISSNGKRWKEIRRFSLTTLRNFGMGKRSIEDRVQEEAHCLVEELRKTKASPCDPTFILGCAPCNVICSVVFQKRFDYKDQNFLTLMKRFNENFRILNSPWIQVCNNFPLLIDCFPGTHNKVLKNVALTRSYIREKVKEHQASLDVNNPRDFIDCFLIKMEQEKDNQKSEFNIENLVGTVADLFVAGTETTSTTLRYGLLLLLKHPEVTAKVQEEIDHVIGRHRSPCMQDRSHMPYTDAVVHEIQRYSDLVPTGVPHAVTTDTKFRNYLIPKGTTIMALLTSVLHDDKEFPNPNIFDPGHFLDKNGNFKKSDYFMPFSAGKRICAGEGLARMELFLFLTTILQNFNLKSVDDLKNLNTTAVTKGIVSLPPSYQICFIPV
CYP2C19, sequence (P33261 whole entry): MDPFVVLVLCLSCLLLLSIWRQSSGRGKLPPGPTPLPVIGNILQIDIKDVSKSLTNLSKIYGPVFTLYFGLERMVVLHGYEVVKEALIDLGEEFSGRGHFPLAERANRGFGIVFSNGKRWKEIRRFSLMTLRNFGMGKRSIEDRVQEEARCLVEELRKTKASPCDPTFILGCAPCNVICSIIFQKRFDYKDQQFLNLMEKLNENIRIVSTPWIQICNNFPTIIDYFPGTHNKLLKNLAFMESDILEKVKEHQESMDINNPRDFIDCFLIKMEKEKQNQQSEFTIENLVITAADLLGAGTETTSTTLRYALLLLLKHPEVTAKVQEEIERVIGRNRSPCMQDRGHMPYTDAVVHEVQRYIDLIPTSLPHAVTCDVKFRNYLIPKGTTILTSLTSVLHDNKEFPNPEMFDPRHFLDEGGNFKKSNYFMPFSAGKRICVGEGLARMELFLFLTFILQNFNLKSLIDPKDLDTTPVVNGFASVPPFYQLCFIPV

As a reminder, the IC50 is the concentration that inhibits the measured activity by half. The low end stands for inhibition by little substance, the high end for a need for much substance. On to `Cc1cc(C)c(Nc2ccnc(Nc3ccc(C#N)cc3)n2)c(C)c1` [DPV, Dapivirine], for which the “% DPV Remaining at 60 min without MIC” value is 37.14% in data set [1] (10 μM DPV) and 97.15% in data set [7] (10 μM DPV). Moreover, the “% DPV Remaining at 60 min with MIC” value in data set [1] (10 μM DPV and 30 μM MIC) is on record as 88.39%; in data set [7] (10 μM DPV and 30 μM MIC), 95.59%. Further, the IC50 in data set [2] is 1.41 µM; in data set [6], above 30 µM. Besides, the cytotoxicity entry in data set [3] is listed as “no cytotoxicity observed”. For the same compound, in data set [4], the “CYP3A4 mRNA change” value is recorded as “induction in two donors”. Also, in data set [5], the “CYP2B6 mRNA change” value is “inhibition in one donor”.
